Source: patent US20050096347A1, “Beta3-Adrenoreceptor agonists, agonist compositions and methods of using” (Molecular Design International, Inc., priority 1997, published 2005)
Structures can show the parent of a compound that is named as a salt. Where two headings read alike, the source gives them in different places.

Tests used:
human β2 Adrenoreceptor = molecular target: T1, human β2 Adrenoreceptor (Homo sapiens, UniProt P07550); experiment: Radioligand competition binding, human β2 adrenoreceptor expressed in CHO cells ([125I]ICYP); settings: for pKi ± SEM, Human β2 Adrenoreceptor CHO: [125I]ICYP as radioligand, N = 4-9; for P.R. (potency ratio), Human β2 Adrenoreceptor CHO: relative to cmpd. 1 (TMQ), PR = antilog [pKi(drug) − pKi(TMQ)]
T1 construct: expressed in transfected cells

Human β3 Adrenoreceptors = molecular target: T2, Human β3 Adrenoreceptors (Homo sapiens, UniProt P13945); experiment: hβ3 cAMP functional activity in CHO cells expressing human β3 adrenoreceptors (Table 8); type: cell-based; settings: for EC50: read-out: hβ3 cAMP EC50(nM) +/−SEM
T2 construct: expressed in transfected cells

human β1 Adrenoreceptor = human β1 Adrenoreceptor (Homo sapiens, UniProt P08588); experiment: Radioligand competition binding, human β1 adrenoreceptor expressed in CHO cells ([125I]ICYP)
Description: Competitive and comparative binding experiments on β1 Adrenoreceptors, β2 Adrenoreceptors and β3-Adrenoreceptors expressed in CHO cells were performed as described previously. […] CHO cells grown to a confluence in 150-mL flasks were detached into Ham's F-12 medium after treatment with 0.05% trypsin-0.53 mM EDTA solution. The cells were then pelleted and washed three times with Tris-EDTA buffer (50 mM Tris-HCl, 150 mM NaCl, 20 mM EDTA, pH 7.4) and resuspended in the same buffer.
Competition binding experiments were performed in duplicates using these whole cells. […] The final volume in each tube was 0.25 mL. Nonspecific binding (5-30%) was determined in the presence of 1 μM (±)-propranolol. Incubations were carried out for 60 min at 37° C. Binding reactions were terminated by rapid filtration through Whatman GF/B glass fiber filters on a Brandel model 12-R tissue harvester. Filters were washed twice with ice cold Tris-EDTA buffer to remove free ICYP. The filters were dried under tissue harvester vacuum and radioactivity was measured by gamma scintillation spectrometry (Beckman model 8000 gamma counter, Palo Alto, Calif.). Specific binding to β Adrenoreceptor sites in these cells varied from 94 to 100%
Inhibitory concentration-50 (IC50) value of each competing drug was determined graphically from individual plots of percent radioligand bound versus log drug concentration on O-adrenoceptors and human platelets. […] Dissociation constants (Ki) for each competing drug were calculated using the equation: [formula] and the data expressed as pKi (i.e., −log Ki) values.

[1] = molecular target: T3, Thromboxane A2/Prostaglandin H2 (TP) receptor (Homo sapiens, UniProt P21731); experiment: Radioligand competition binding, TP receptor sites in human platelets ([3H]SQ 29,548); settings: for pKi ± SEM, Human TP receptors: [3H]SQ 29,548 as radioligand, platelets, N = 4-9; for P.R. (potency ratio), Human TP receptors: relative to cmpd. 1 (TMQ), PR = antilog [pKi(drug) − pKi(TMQ)]
T3 construct: endogenous in cells; host or cells: human platelets (from platelet rich plasma)
T3 sequence (P21731 1-343): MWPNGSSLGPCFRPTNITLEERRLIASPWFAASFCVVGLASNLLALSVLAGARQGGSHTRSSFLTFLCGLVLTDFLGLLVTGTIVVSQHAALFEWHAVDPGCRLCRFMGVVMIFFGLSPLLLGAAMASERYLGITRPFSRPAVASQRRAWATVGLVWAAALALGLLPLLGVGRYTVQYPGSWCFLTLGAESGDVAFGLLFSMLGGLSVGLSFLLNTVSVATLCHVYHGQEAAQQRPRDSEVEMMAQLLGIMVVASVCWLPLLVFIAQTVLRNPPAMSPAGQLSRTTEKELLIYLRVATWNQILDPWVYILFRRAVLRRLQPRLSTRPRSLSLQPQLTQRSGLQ
Description: For binding experiments, human platelet rich plasma (PRP) was centrifuged and re-suspended in 50 mM Tris-saline buffer, pH 7.4. […] Filters were placed in plastic scintillation vials containing 10 mL of an emulsion-type scintillation mixture and radioactivity measured by liquid scintillation spectrometry.

rat-β3-AR [2] = molecular target: T4, rat-β3-AR (Rattus norvegicus, UniProt P26255); experiment: cAMP accumulation in CHO cells expressing rat β3-AR; type: cell-based; settings: for EC50: read-out: pKact (−log EC50) for cAMP accumulation, rat-β3-AR (converted); for Emax: relative to that of (−)-isoproterenol, CHO cells expressing rat-β3-AR, read-out: Emax, maximal cAMP accumulation
T4 construct: expressed in transfected cells; host or cells: CHO cells
Description: cAMP Radioimmunoassay (CAMP-RIA Assay). […] The precipitated protein was dissolved in 0.1N NaOH.

rat-β3-AR [3] = molecular target: T4, rat-β3-AR; experiment: Binding in CHO cells expressing rat β3-AR; settings: mean ± SEM (n in parentheses), read-out: pKi (−log Ki) for binding, rat-β3-AR (converted)
[4] = CHO cells (Table 8), read-out: hβ2 Binding ki
[5] = CHO cells, mean ± SEM (n in parentheses)

T4 sequence (P26255 whole entry): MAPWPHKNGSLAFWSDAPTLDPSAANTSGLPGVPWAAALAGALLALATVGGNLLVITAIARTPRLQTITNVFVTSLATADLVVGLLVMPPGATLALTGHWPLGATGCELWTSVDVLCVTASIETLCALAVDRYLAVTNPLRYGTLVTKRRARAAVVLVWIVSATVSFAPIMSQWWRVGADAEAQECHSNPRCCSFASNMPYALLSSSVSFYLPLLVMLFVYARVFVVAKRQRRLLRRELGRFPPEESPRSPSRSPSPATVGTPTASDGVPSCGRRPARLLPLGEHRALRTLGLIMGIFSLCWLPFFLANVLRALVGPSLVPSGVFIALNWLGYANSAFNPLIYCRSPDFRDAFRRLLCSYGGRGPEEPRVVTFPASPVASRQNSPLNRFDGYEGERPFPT
T2 sequence (P13945 whole entry): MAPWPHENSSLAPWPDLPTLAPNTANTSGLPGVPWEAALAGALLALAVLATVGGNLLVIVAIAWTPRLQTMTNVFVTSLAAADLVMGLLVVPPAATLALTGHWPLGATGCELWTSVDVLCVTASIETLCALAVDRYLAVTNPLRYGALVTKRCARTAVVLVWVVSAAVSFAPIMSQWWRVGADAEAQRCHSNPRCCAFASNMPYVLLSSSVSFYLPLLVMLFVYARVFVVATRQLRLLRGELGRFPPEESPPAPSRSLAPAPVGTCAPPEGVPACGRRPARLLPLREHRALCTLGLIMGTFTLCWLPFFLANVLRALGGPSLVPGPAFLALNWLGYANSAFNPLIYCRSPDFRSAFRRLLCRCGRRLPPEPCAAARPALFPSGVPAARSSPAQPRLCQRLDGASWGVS
T1 sequence (P07550 whole entry): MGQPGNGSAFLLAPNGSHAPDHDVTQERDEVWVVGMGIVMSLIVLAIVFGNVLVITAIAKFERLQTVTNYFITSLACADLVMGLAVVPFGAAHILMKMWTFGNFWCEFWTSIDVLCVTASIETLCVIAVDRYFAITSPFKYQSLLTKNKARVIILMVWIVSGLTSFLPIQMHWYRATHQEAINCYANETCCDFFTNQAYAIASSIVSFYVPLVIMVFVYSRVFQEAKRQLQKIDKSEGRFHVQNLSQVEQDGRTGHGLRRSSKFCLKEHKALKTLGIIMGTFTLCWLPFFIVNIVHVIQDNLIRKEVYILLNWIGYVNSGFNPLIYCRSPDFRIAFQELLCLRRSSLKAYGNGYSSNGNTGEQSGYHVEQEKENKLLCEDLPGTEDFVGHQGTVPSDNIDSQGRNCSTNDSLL
human β1 Adrenoreceptor, sequence (P08588 whole entry): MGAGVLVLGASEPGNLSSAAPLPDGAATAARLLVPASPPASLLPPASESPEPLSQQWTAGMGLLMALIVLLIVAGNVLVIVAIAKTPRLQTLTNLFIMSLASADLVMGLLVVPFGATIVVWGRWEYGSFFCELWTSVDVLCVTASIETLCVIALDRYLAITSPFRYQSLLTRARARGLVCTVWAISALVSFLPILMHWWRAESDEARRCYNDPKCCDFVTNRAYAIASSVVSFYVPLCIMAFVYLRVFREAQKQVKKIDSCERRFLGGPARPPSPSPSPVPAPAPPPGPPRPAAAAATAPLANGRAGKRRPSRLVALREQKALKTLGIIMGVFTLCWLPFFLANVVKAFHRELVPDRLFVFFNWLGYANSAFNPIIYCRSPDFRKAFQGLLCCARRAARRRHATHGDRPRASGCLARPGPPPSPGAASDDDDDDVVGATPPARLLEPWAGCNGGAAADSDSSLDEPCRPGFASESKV

| Structure (SMILES) | EC50 (Human β3 Adrenoreceptors) [nM] | Ki (rat-β3-AR [3]) [nM] | pKi ± SEM, Human β2 Adrenoreceptor CHO (human β2 Adrenoreceptor) | pKi ± SEM, Human TP receptors [1] | P.R. (potency ratio), Human β2 Adrenoreceptor CHO (human β2 Adrenoreceptor) | P.R. (potency ratio), Human TP receptors [1] | other results |
| --- | --- | --- | --- | --- | --- | --- | --- |
| Br.Oc1cc2c(cc1O)C(Cc1cc(I)c(O)c(I)c1)NCC2 (centres unmarked) [Compound 18, 6,7-Dihydroxy-1-(4-hydroxy-3,5-diiodobenzyl)-1,2,3,4-tetrahydroisoquinoline Hydrobromide] |  |  | 7.93 | 4.72 |  |  |  |
| Cl.Oc1cc2c(cc1O)C(Cc1cc(C(F)(F)F)cc(C(F)(F)F)c1)NCC2 (centres unmarked) [Compound 27, 1-(3,5-Bis-trifluoromethylbenzyl)-6,7-dihydroxy-1,2,3,4-tetrahydroisoquinoline Hydrochloride] |  |  | 5.36 | 4.08 ± 0.02 | 0.01 | 0.002 |  |
| COc1cc2c(cc1OC)C(Cc1cc(OC)c(OC)c(OC)c1)NCC2 (centres unmarked) [6,7-Dimethoxy TMQ, reference compound] |  | 132000 |  |  |  |  | pKact (−log EC50) for cAMP accumulation, rat-β3-AR (rat-β3-AR [2]; [5]): no activity upto 3 × 10^−5 M |
| COc1c(I)cc(CC2NCCc3nc(N)sc32)cc1I (centres unmarked) | 506 |  |  |  |  |  | Ki (human β2 Adrenoreceptor): 534 nM |
| CC(=O)Nc1ccc(CC2NCCc3cc(O)c(O)cc32)cc1I.I (centres unmarked) [Compound 26a, 1-(4-Acetamido-3-iodobenzyl)-6,7-dihydroxy-1,2,3,4-tetrahydroisoquinoline Hydroiodide] |  |  | 8.11 | 5.83 | 5.6 | 0.11 | fold decrease in TP receptor binding affinity on removal of one iodine (24 vs 21c, 26a vs 15) [1]: 5 fold |
| I.O=C(Nc1ccc(CC2NCCc3cc(O)c(O)cc32)cc1I)c1ccccc1 (centres unmarked) [Compound 26b, 1-(4-Benzoylamino-3-iodobenzyl)-6,7-dihydroxy-1,2,3,4-tetrahydroisoquinoline Hydroiodide] |  |  | 8.70 | 5.27 ± 0.13 | 22 | 0.03 |  |
| COc1cc(CC2NCCc3cc4c(cc32)OCO4)cc(OC)c1OC (centres unmarked) [6,7-Methylenedioxy TMQ] |  | 51300 |  |  |  |  | EC50 (rat-β3-AR [2]; [5]): 1200 nM; Emax (rat-β3-AR [2]): 70.9 ± 4.41% |
| COc1cc2c(cc1OC)C(Cc1cc(I)c(NC(C)=O)c(I)c1)NCC2 (centres unmarked) [6,7-Dimethoxy-acetamidoDITMQ, 1-(4-Acetamido-3,5-diiodobenzyl)-6,7-dimethoxy-1,2,3,4-tetrahydroisoquinoline Hydrochloride] |  | 14500 |  |  |  |  |  |
| Br.Oc1cc2c(cc1O)C(Cc1cc(I)c(I)c(I)c1)NCC2 (centres unmarked) [Compound 21b, 6,7-Dihydroxy-1-(3,4,5-triiodobenzyl)-1,2,3,4-tetrahydroisoquinoline Hydrobromide] |  |  | 8.82 | 4.22 | 29 | 0.003 |  |

Continued, in another order:

| EC50 (Human β3 Adrenoreceptors) [nM] | Ki (rat-β3-AR [3]) [nM] | Structure (SMILES) | pKi ± SEM, Human β2 Adrenoreceptor CHO (human β2 Adrenoreceptor) | pKi ± SEM, Human TP receptors [1] | P.R. (potency ratio), Human β2 Adrenoreceptor CHO (human β2 Adrenoreceptor) | P.R. (potency ratio), Human TP receptors [1] | other results |
| --- | --- | --- | --- | --- | --- | --- | --- |
| 33.5 |  | COc1c(I)cc(CC2NCCc3cc(O)ccc32)cc1I (centres unmarked) [drawing 83] |  |  |  |  | Ki (human β2 Adrenoreceptor; [4]): 47 nM; hβ3 cAMP % Iso +/−SEM (Human β3 Adrenoreceptors): 89 +/− 5 % Iso; Ki (human β1 Adrenoreceptor): 278 nM |
| < 4 |  | Nc1c(I)cc(CC2NCCc3cc(O)c(O)cc32)cc1I (centres unmarked) |  |  |  |  | hβ3 cAMP % Iso +/−SEM (Human β3 Adrenoreceptors): 108 +/− 2 % Iso; Ki (human β1 Adrenoreceptor): 63.4 nM |
|  | 1580 | Oc1cc2c(cc1O)C(Cc1cc(I)cc(I)c1)NCC2 (centres unmarked) [DemethoxyDITMQ] |  |  |  |  | EC50 (rat-β3-AR [2]; [5]): 1.82 nM; Emax (rat-β3-AR [2]): 97.7 ± 5.85% |
|  | 457 | COc1c(I)cc(CC2NCCc3cc(O)c(O)cc32)cc1I (centres unmarked) [Compound 2, reference compound] |  | 7.33 |  |  | EC50 (rat-β3-AR [2]; [5]): 0.398 nM; Emax (rat-β3-AR [2]): 96.9 ± 10.1% |
|  | 724 | Cl.Cl.Nc1c(I)cc(CC2NCCc3cc(O)c(O)cc32)cc1I (centres unmarked) [Compound 21c, 1-(4-Amino-3,5-diiodobenzyl)-6,7-dihydroxy-1,2,3,4-tetrahydroisoquinoline Dihydrochloride] | 8.81 | 6.73 | 28 | 0.87 | fold reduction in TP receptor binding affinity compared to 2 [1]: 3 fold |
| < 4 |  | COc1c(I)cc(CC2NCCc3cc(O)c(O)cc32)cc1I (centres unmarked) [drawing 80] |  |  |  |  | Ki (human β2 Adrenoreceptor; [4]): 3.1 nM |
| < 1 |  | COc1cc(CC2NCCc3cc(O)c(O)cc32)cc(OC)c1OC (centres unmarked) |  |  |  |  |  |
